Structures can show the parent of a compound that is named as a salt.
Assays:
[1] = Evaluation of a conversion rate to 2-acetylnaphtho[2,3-b]furan-4,9-dione in human plasma; type: in vitro ADME; conditions: Human plasma, 1 umol/L, 37° C., incubation time 120 min
Protocol: (§1) For test compounds, the decrease rate of the test compounds and the conversion rate thereof to 2-acetylnaphtho[2,3-b]furan-4,9-dione in human plasma, CD1 mouse plasma, and pH 7.4 phosphate buffer solution were measured.
(§2) Test compounds were incubated at the concentration of 1 umol/L in human plasma (cat. no. 12250210, COSMO BIO), CD1 mouse plasma (cat. no. AP3054, KAC), and phosphate buffer solution at 37° C., and removed at predetermined times (0, 5, 10, 30, 60, and 120 minutes). After protein-removing treatment was performed, they are analyzed with LC-MS. It should be noted that the protein-removing treatment used acetonitrile containing: 10% volume of 1 mol/L hydrochloric acid; 1% volume of 46% citric acid; and phenytoin as an internal standard.
(§3) The measurement condition of LC-MS is as described below. LC-MS condition column: Kinetex 2.6 u PFP 100 A 50×2.1 mm Column temperature: 40° C.
(§4) Mobile phase: A: 0.1% formic acid-containing water
(§5) • B: 0.1% formic acid-containing acetonitrile A/B(min): 95/5(0)→5/95(3)→5/95(4)→95/5(4.1)→95/5(6) Flow rate: 0.4 mL/min Detection: ESI (positive mode) Injection volume: 10 uL
In the same way as Example 6, the incubation time was set as 120 minutes later, and the conversion rate of each of various test compounds to 2-acetylnaphtho[2,3-b]furan-4,9-dione in human plasma, CD1 mouse plasma, and pH 7.4 phosphate buffer solution was measured.

[2] = Evaluation of a conversion rate to 2-acetylnaphtho[2,3-b]furan-4,9-dione in pH 7.4 phosphate buffer solution; type: physicochemical; conditions: Phosphate buffer solution (pH 7.4), 1 umol/L, 37° C., incubation time 120 min
Protocol: as §1, §2, §3, §4, §5
Measurement values are calculated from the peak area ratio in LC-MS between an internal standard material, phenytoin and an active form, 2-acetylnaphtho[2,3-b]furan-4,9-dione, and are expressed in %.
In the same way as Example 6, the incubation time was set as 120 minutes later, and the conversion rate of each of various test compounds to 2-acetylnaphtho[2,3-b]furan-4,9-dione in human plasma, CD1 mouse plasma, and pH 7.4 phosphate buffer solution was measured. A series of the present compounds were confirmed to be converted to 2-acetylnaphtho[2,3-b]furan-4,9-dione in pH 7.4 phosphate buffer solution in addition to human plasma and CD1 mouse plasma. Therefore, a series of the test compounds of the present invention were confirmed to be converted to the activated form via a route other than an enzymatic conversion.

Solubility test = conditions: for Solubility in pH 2.0 buffer solution: 50 mmol/L glycine buffer solution (pH 2.0), room temperature, 24 hours shaking
Protocol: A water-soluble prodrug was added into 50 mmol/L glycine buffer solution (pH 2.0). After shaking at room temperature for 24 hours, the mixture was filtered through a membrane filter, and then the filtrate was measured with HPLC.
The measurement condition of HPLC is as described below. HPLC condition column: Acquity UPLC BEH C18, 1.7 um, 50×2.1 mm
Mobile phase: A: 0.1% trifluoroacetic acid-containing water

CC(=O)c1cc2c(OC(=O)NCCNCCCC(=O)O)c3ccccc3c(OC(=O)NCCNCCCC(=O)O)c2o1.Cl.Cl [Example 42]
% Measurement value (conversion rate to 2-acetylnaphtho[2,3-b]furan-4,9-dione) [1]: 69%
% Measurement value (conversion rate to 2-acetylnaphtho[2,3-b]furan-4,9-dione) [2]: 54%
Solubility in pH 2.0 buffer solution (Solubility test): >5.0 mg/mL

CC(=O)c1cc2c(OC(=O)NCCNCCF)c3ccccc3c(OC(=O)NCCNCCF)c2o1.Cl.Cl [Example 43]
% Measurement value (conversion rate to 2-acetylnaphtho[2,3-b]furan-4,9-dione) [1]: 81%
% Measurement value (conversion rate to 2-acetylnaphtho[2,3-b]furan-4,9-dione) [2]: 63%
Solubility in pH 2.0 buffer solution (Solubility test): >5.0 mg/mL

CC(=O)c1cc2c(OC(=O)NCCNCC(F)(F)F)c3ccccc3c(OC(=O)NCCNCC(F)(F)F)c2o1.Cl.Cl [Example 45]
% Measurement value (conversion rate to 2-acetylnaphtho[2,3-b]furan-4,9-dione) [1]: 84%
% Measurement value (conversion rate to 2-acetylnaphtho[2,3-b]furan-4,9-dione) [2]: 48%
Solubility in pH 2.0 buffer solution (Solubility test): >5.0 mg/mL

CC(=O)c1cc2c(OC(=O)NCCNCCN)c3ccccc3c(OC(=O)NCCNCCN)c2o1.Cl.Cl [Example 46]
% Measurement value (conversion rate to 2-acetylnaphtho[2,3-b]furan-4,9-dione) [1]: 59%
% Measurement value (conversion rate to 2-acetylnaphtho[2,3-b]furan-4,9-dione) [2]: 54%
Solubility in pH 2.0 buffer solution (Solubility test): >5.0 mg/mL

COC(=O)CNCCCNC(=O)Oc1c2ccccc2c(OC(=O)NCCCNCC(=O)OC)c2oc(C(C)=O)cc12.Cl.Cl [Example 47]
% Measurement value (conversion rate to 2-acetylnaphtho[2,3-b]furan-4,9-dione) [1]: 92%
% Measurement value (conversion rate to 2-acetylnaphtho[2,3-b]furan-4,9-dione) [2]: 65%
Solubility in pH 2.0 buffer solution (Solubility test): >5.0 mg/mL

CC(=O)c1cc2c(OC(=O)NC3CCNC3)c3ccccc3c(OC(=O)NC3CCNC3)c2o1.Cl.Cl (stereo not drawn) [Example 48]
% Measurement value (conversion rate to 2-acetylnaphtho[2,3-b]furan-4,9-dione) [1]: 71%
% Measurement value (conversion rate to 2-acetylnaphtho[2,3-b]furan-4,9-dione) [2]: 59%
Solubility in pH 2.0 buffer solution (Solubility test): >5.0 mg/mL

CC(=O)c1cc2c(OC(=O)NC3CCCNC3)c3ccccc3c(OC(=O)NC3CCCNC3)c2o1.Cl.Cl (stereo not drawn) [Example 49]
% Measurement value (conversion rate to 2-acetylnaphtho[2,3-b]furan-4,9-dione) [1]: 77%
% Measurement value (conversion rate to 2-acetylnaphtho[2,3-b]furan-4,9-dione) [2]: 58%
Solubility in pH 2.0 buffer solution (Solubility test): >5.0 mg/mL

CC(=O)c1cc2c(OC(=O)NCCNC(C)C(=O)O)c3ccccc3c(OC(=O)NCCNC(C)C(=O)O)c2o1.Cl.Cl (stereo not drawn) [Example 50]
% Measurement value (conversion rate to 2-acetylnaphtho[2,3-b]furan-4,9-dione) [1]: 96%
% Measurement value (conversion rate to 2-acetylnaphtho[2,3-b]furan-4,9-dione) [2]: 61%
Solubility in pH 2.0 buffer solution (Solubility test): 0.1 mg/mL

CCC(NCCNC(=O)Oc1c2ccccc2c(OC(=O)NCCNC(CC)C(=O)O)c2oc(C(C)=O)cc12)C(=O)O.Cl.Cl (stereo not drawn) [Example 51]
% Measurement value (conversion rate to 2-acetylnaphtho[2,3-b]furan-4,9-dione) [1]: 70%
% Measurement value (conversion rate to 2-acetylnaphtho[2,3-b]furan-4,9-dione) [2]: 55%
Solubility in pH 2.0 buffer solution (Solubility test): 0.1 mg/mL

CC(=O)c1cc2c(OC(=O)NCCCNCCN)c3ccccc3c(OC(=O)NCCCNCCN)c2o1.Cl.Cl [Example 52]
% Measurement value (conversion rate to 2-acetylnaphtho[2,3-b]furan-4,9-dione) [1]: 78%
% Measurement value (conversion rate to 2-acetylnaphtho[2,3-b]furan-4,9-dione) [2]: 55%
Solubility in pH 2.0 buffer solution (Solubility test): >5.0 mg/mL

CC(=O)c1cc2c(OC(=O)NCCCNCC(F)(F)F)c3ccccc3c(OC(=O)NCCCNCC(F)(F)F)c2o1.Cl.Cl [Example 53]
% Measurement value (conversion rate to 2-acetylnaphtho[2,3-b]furan-4,9-dione) [1]: 100%
% Measurement value (conversion rate to 2-acetylnaphtho[2,3-b]furan-4,9-dione) [2]: 41%
Solubility in pH 2.0 buffer solution (Solubility test): >5.0 mg/mL

CC(=O)c1cc2c(OC(=O)NCCNCc3ccccc3)c3ccccc3c(OC(=O)NCCNCc3ccccc3)c2o1.Cl.Cl [Example 55]
% Measurement value (conversion rate to 2-acetylnaphtho[2,3-b]furan-4,9-dione) [1]: 86%
% Measurement value (conversion rate to 2-acetylnaphtho[2,3-b]furan-4,9-dione) [2]: 63%
Solubility in pH 2.0 buffer solution (Solubility test): >5.0 mg/mL

CC(=O)c1cc2c(OC(=O)NCCNCCS(=O)(=O)N3CCCCC3)c3ccccc3c(OC(=O)NCCNCCS(=O)(=O)N3CCCCC3)c2o1.Cl.Cl [Example 56]
% Measurement value (conversion rate to 2-acetylnaphtho[2,3-b]furan-4,9-dione) [1]: 63%
% Measurement value (conversion rate to 2-acetylnaphtho[2,3-b]furan-4,9-dione) [2]: 30%
Solubility in pH 2.0 buffer solution (Solubility test): 3.3 mg/mL

CC(=O)c1cc2c(OC(=O)NCCNCCS(=O)(=O)N(C)C)c3ccccc3c(OC(=O)NCCNCCS(=O)(=O)N(C)C)c2o1.Cl.Cl [Example 57]
% Measurement value (conversion rate to 2-acetylnaphtho[2,3-b]furan-4,9-dione) [1]: 68%
% Measurement value (conversion rate to 2-acetylnaphtho[2,3-b]furan-4,9-dione) [2]: 34%
Solubility in pH 2.0 buffer solution (Solubility test): >5.0 mg/mL

CC(=O)c1cc2c(OC(=O)NCCNCCS(=O)(=O)C(C)C)c3ccccc3c(OC(=O)NCCNCCS(=O)(=O)C(C)C)c2o1.Cl.Cl [Example 58]
% Measurement value (conversion rate to 2-acetylnaphtho[2,3-b]furan-4,9-dione) [1]: 81%
% Measurement value (conversion rate to 2-acetylnaphtho[2,3-b]furan-4,9-dione) [2]: 40%
Solubility in pH 2.0 buffer solution (Solubility test): 1.5 mg/mL

CC(=O)c1cc2c(OC(=O)NCCCNCCS(=O)(=O)N(C)C)c3ccccc3c(OC(=O)NCCCNCCS(=O)(=O)N(C)C)c2o1.Cl.Cl [Example 59]
% Measurement value (conversion rate to 2-acetylnaphtho[2,3-b]furan-4,9-dione) [1]: 81%
% Measurement value (conversion rate to 2-acetylnaphtho[2,3-b]furan-4,9-dione) [2]: 66%
Solubility in pH 2.0 buffer solution (Solubility test): >5.0 mg/mL

CC(=O)c1cc2c(OC(=O)NCCCNCCS(C)(=O)=O)c3ccccc3c(OC(=O)NCCCNCCS(C)(=O)=O)c2o1.Cl.Cl [Example 60]
% Measurement value (conversion rate to 2-acetylnaphtho[2,3-b]furan-4,9-dione) [1]: 68%
% Measurement value (conversion rate to 2-acetylnaphtho[2,3-b]furan-4,9-dione) [2]: 39%
Solubility in pH 2.0 buffer solution (Solubility test): >5.0 mg/mL

CC(=O)c1cc2c(OC(=O)NCCNCCS(C)(=O)=O)c3ccccc3c(OC(=O)NCCNCCS(C)(=O)=O)c2o1.Cl.Cl [Example 61]
% Measurement value (conversion rate to 2-acetylnaphtho[2,3-b]furan-4,9-dione) [1]: 87%
% Measurement value (conversion rate to 2-acetylnaphtho[2,3-b]furan-4,9-dione) [2]: 55%
Solubility in pH 2.0 buffer solution (Solubility test): 2.5 mg/mL

CC(=O)c1cc2c(OC(=O)NCCNCC(=O)N3CCC3)c3ccccc3c(OC(=O)NCCNCC(=O)N3CCC3)c2o1.Cl.Cl [Example 62]
% Measurement value (conversion rate to 2-acetylnaphtho[2,3-b]furan-4,9-dione) [1]: 65%
% Measurement value (conversion rate to 2-acetylnaphtho[2,3-b]furan-4,9-dione) [2]: 37%
Solubility in pH 2.0 buffer solution (Solubility test): >5.0 mg/mL

CC(=O)c1cc2c(OC(=O)NCCCNCC(=O)N3CCC3)c3ccccc3c(OC(=O)NCCCNCC(=O)N3CCC3)c2o1.Cl.Cl [Example 63]
% Measurement value (conversion rate to 2-acetylnaphtho[2,3-b]furan-4,9-dione) [1]: 59%
% Measurement value (conversion rate to 2-acetylnaphtho[2,3-b]furan-4,9-dione) [2]: 51%
Solubility in pH 2.0 buffer solution (Solubility test): >5.0 mg/mL

CC(=O)c1cc2c(OC(=O)NCCCNCC(=O)NCC(=O)O)c3ccccc3c(OC(=O)NCCCNCC(=O)NCC(=O)O)c2o1.Cl.Cl [Example 64]
% Measurement value (conversion rate to 2-acetylnaphtho[2,3-b]furan-4,9-dione) [1]: 57%
% Measurement value (conversion rate to 2-acetylnaphtho[2,3-b]furan-4,9-dione) [2]: 40%
Solubility in pH 2.0 buffer solution (Solubility test): >5.0 mg/mL

CC(=O)c1cc2c(OC(=O)NCCNCCOC(N)=O)c3ccccc3c(OC(=O)NCCNCCOC(N)=O)c2o1.Cl.Cl [Example 65]
% Measurement value (conversion rate to 2-acetylnaphtho[2,3-b]furan-4,9-dione) [1]: 81%
% Measurement value (conversion rate to 2-acetylnaphtho[2,3-b]furan-4,9-dione) [2]: 73%
Solubility in pH 2.0 buffer solution (Solubility test): >5.0 mg/mL

CC(=O)c1cc2c(OC(=O)NCCCNCCOC(N)=O)c3ccccc3c(OC(=O)NCCCNCCOC(N)=O)c2o1.Cl.Cl [Example 66]
% Measurement value (conversion rate to 2-acetylnaphtho[2,3-b]furan-4,9-dione) [1]: 59%
% Measurement value (conversion rate to 2-acetylnaphtho[2,3-b]furan-4,9-dione) [2]: 44%
Solubility in pH 2.0 buffer solution (Solubility test): >5.0 mg/mL

COC(=O)NCCNCCNC(=O)Oc1c2ccccc2c(OC(=O)NCCNCCNC(=O)OC)c2oc(C(C)=O)cc12.Cl.Cl [Example 67]
% Measurement value (conversion rate to 2-acetylnaphtho[2,3-b]furan-4,9-dione) [1]: 78%
% Measurement value (conversion rate to 2-acetylnaphtho[2,3-b]furan-4,9-dione) [2]: 60%
Solubility in pH 2.0 buffer solution (Solubility test): >5.0 mg/mL

COC(=O)[C@@H](N)CCNC(=O)Oc1c2ccccc2c(OC(=O)NCC[C@H](N)C(=O)OC)c2oc(C(C)=O)cc12 [Example 105, Dimethyl 4,4′-((((2-acetylnaphtho[2,3-b]furan-4,9-diyl)bis(oxy))bis(carbonyl))bis(azanediyl))(2S,2′S)-bis(2-aminobutanoate)ditoluenesulfonate salt monohydrate]
% Measurement value (conversion rate to 2-acetylnaphtho[2,3-b]furan-4,9-dione) ([2]; monohydrate): 65%
solubility at 24 hours (Solubility test; pH 2, aqueous buffer, thermodynamic from solid): > 5000 µg/mL

COC(=O)[C@@H](N)CCNC(=O)Oc1c2ccccc2c(OC(=O)NCC[C@H](N)C(=O)OC)c2oc(C(C)=O)cc12 [Example 106, Dimethyl 4,4′-((((2-acetylnaphtho[2,3-b]furan-4,9-diyl)bis(oxy))bis(carbonyl))bis(azanediyl))(2S,2′S)-bis(2-aminobutanoate)dibenzenesulfonate salt]
% Measurement value (conversion rate to 2-acetylnaphtho[2,3-b]furan-4,9-dione) [2]: 55%
Solubility in pH 2.0 buffer solution (Solubility test): >5.0 mg/mL

COC(=O)[C@@H](N)CCNC(=O)Oc1c2ccccc2c(OC(=O)NCC[C@H](N)C(=O)OC)c2oc(C(C)=O)cc12 [Example 108, Dimethyl 4,4′-((((2-acetylnaphtho[2,3-b]furan-4,9-diyl)bis(oxy))bis(carbonyl))bis(azanediyl))(2S,2′S)-bis(2-aminobutanoate)ditrifluoroacetate salt]
% Measurement value (conversion rate to 2-acetylnaphtho[2,3-b]furan-4,9-dione) [2]: 44%
Solubility in pH 2.0 buffer solution (Solubility test): >5.0 mg/mL

— patent publication US10800752B2, “Substituted naphtho[2,3-b]furans as water-soluble prodrugs for preventing and/or treating cancer” (BOSTON BIOMEDICAL, INC., priority 2015, dated 2020)
